According to PubChem BioAssay (NCI):
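Tested at 5 concentrations; 48 h exposure; 96-well plates; endpoints linearly interpolated, else capped at highest concentration. TGI marks complete inhibition of growth.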

Key:
Test in all cases: inhibition of tumour cell growth, NCI panel, 48 h
786-0 renal = system: 786-0 renal
A498 renal = system: A498 renal
A549 NSCLC = system: A549 NSCLC
ACHN renal = system: ACHN renal
CAKI-1 renal = system: CAKI-1 renal
CCRF-CEM leukemia = system: CCRF-CEM leukemia
COLO 205 colon = system: COLO 205 colon
DU-145 prostate = system: DU-145 prostate
EKVX NSCLC = system: EKVX NSCLC
HCC-2998 colon = system: HCC-2998 colon
HCT-116 colon = system: HCT-116 colon
HCT-15 colon = system: HCT-15 colon
HL-60(TB) leukemia = system: HL-60(TB) leukemia
HOP-62 NSCLC = system: HOP-62 NSCLC
HOP-92 NSCLC = system: HOP-92 NSCLC
HS 578T breast = system: HS 578T breast
HT29 colon = system: HT29 colon
K-562 leukemia = system: K-562 leukemia
KM12 colon = system: KM12 colon
LOX IMVI melanoma = system: LOX IMVI melanoma
M14 melanoma = system: M14 melanoma
MALME-3M melanoma = system: MALME-3M melanoma
MCF7 breast = system: MCF7 breast
MDA-MB-231 breast = system: MDA-MB-231 breast
MDA-MB-435 = system: MDA-MB-435
MDA-N = system: MDA-N
NCI-H226 lung = system: NCI-H226 lung
NCI-H23 lung = system: NCI-H23 lung
NCI-H460 lung = system: NCI-H460 lung
NCI-H522 lung = system: NCI-H522 lung
NCI/ADR-RES ovarian = system: NCI/ADR-RES ovarian
OVCAR-3 ovarian = system: OVCAR-3 ovarian
OVCAR-5 ovarian = system: OVCAR-5 ovarian
OVCAR-8 ovarian = system: OVCAR-8 ovarian
PC-3 prostate = system: PC-3 prostate
RPMI-8226 leukemia = system: RPMI-8226 leukemia
RXF 393 renal = system: RXF 393 renal
SF-268 CNS = system: SF-268 CNS
SF-295 CNS = system: SF-295 CNS
SF-539 CNS = system: SF-539 CNS
SK-MEL-28 melanoma = system: SK-MEL-28 melanoma
SK-MEL-5 melanoma = system: SK-MEL-5 melanoma
SK-OV-3 ovarian = system: SK-OV-3 ovarian
SN12C renal = system: SN12C renal
SNB-19 CNS = system: SNB-19 CNS
SNB-75 CNS = system: SNB-75 CNS
SR leukemia = system: SR leukemia
SW-620 colon = system: SW-620 colon
T-47D breast = system: T-47D breast
TK-10 renal = system: TK-10 renal
U251 CNS = system: U251 CNS
UACC-257 melanoma = system: UACC-257 melanoma
UACC-62 melanoma = system: UACC-62 melanoma
UO-31 renal = system: UO-31 renal
IGROV1 ovarian = system: IGROV1 ovarian
MOLT-4 leukemia = system: MOLT-4 leukemia
OVCAR-4 ovarian = system: OVCAR-4 ovarian
SK-MEL-2 melanoma = system: SK-MEL-2 melanoma
BT-549 breast = system: BT-549 breast

Structure (SMILES): CCCCc1ccc(-n2c(C)c(COC(=O)NC)c(COC(=O)NC)c2C)cc1
- TGI (786-0 renal): 16 µM
- TGI (A498 renal): 2.6 µM
- TGI (A549 NSCLC): 19.6 µM
- TGI (ACHN renal): 7.22 µM
- TGI (CAKI-1 renal): 15.9 µM
- TGI (CCRF-CEM leukemia): 18.4 µM
- TGI (COLO 205 colon): 19.6 µM
- TGI (DU-145 prostate): 26.3 µM
- TGI (EKVX NSCLC): 27.8 µM
- TGI (HCC-2998 colon): 30.7 µM
- TGI (HCT-116 colon): 17.8 µM
- TGI (HCT-15 colon): 20.9 µM
- TGI (HL-60(TB) leukemia): 24.4 µM
- TGI (HOP-62 NSCLC): 21.6 µM
- TGI (HOP-92 NSCLC): 11.5 µM
- TGI (HS 578T breast): 45.9 µM
- TGI (HT29 colon): 24.9 µM
- TGI (K-562 leukemia): > 100 µM
- TGI (KM12 colon): 29.3 µM
- TGI (LOX IMVI melanoma): 18.4 µM
- TGI (M14 melanoma): 24.5 µM
- TGI (MALME-3M melanoma): 22 µM
- TGI (MCF7 breast): 19.3 µM
- TGI (MDA-MB-231 breast): 17.8 µM
- TGI (MDA-MB-435): 28.1 µM
- TGI (MDA-N): 31.3 µM
- TGI (NCI-H226 lung): 2.85 µM
- TGI (NCI-H23 lung): 26.4 µM
- TGI (NCI-H460 lung): 18 µM
- TGI (NCI-H522 lung): 9.3 µM
- TGI (NCI/ADR-RES ovarian): 27.4 µM
- TGI (OVCAR-3 ovarian): 24.5 µM
- TGI (OVCAR-5 ovarian): 17.1 µM
- TGI (OVCAR-8 ovarian): 16.5 µM
- TGI (PC-3 prostate): 32 µM
- TGI (RPMI-8226 leukemia): 19.8 µM
- TGI (RXF 393 renal): 9.8 µM
- TGI (SF-268 CNS): 20.3 µM
- TGI (SF-295 CNS): 24.4 µM
- TGI (SF-539 CNS): 15.9 µM
- TGI (SK-MEL-28 melanoma): 33.8 µM
- TGI (SK-MEL-5 melanoma): 23.5 µM
- TGI (SK-OV-3 ovarian): 14.1 µM
- TGI (SN12C renal): 14.5 µM
- TGI (SNB-19 CNS): 30.4 µM
- TGI (SNB-75 CNS): 19.4 µM
- TGI (SR leukemia): 17.2 µM
- TGI (SW-620 colon): 21.4 µM
- TGI (T-47D breast): 27 µM
- TGI (TK-10 renal): 12.4 µM
- TGI (U251 CNS): 17.4 µM
- TGI (UACC-257 melanoma): 24 µM
- TGI (UACC-62 melanoma): 10.5 µM
- TGI (UO-31 renal): 10.6 µM

Structure (SMILES): CC(=O)c1sc2c(c1OC(=O)c1ccc(Cl)cc1Cl)c(=O)n(-c1ccccc1)c(=S)n2-c1ccccc1
- TGI (786-0 renal): 29.6 µM
- TGI (A498 renal): 1.4 µM
- TGI (A549 NSCLC): > 90 µM
- TGI (ACHN renal): 5.21 µM
- TGI (CAKI-1 renal): 25.7 µM
- TGI (CCRF-CEM leukemia): 4.99 µM
- TGI (COLO 205 colon): 15 µM
- TGI (DU-145 prostate): > 100 µM
- TGI (EKVX NSCLC): 49.7 µM
- TGI (HCC-2998 colon): 22.2 µM
- TGI (HCT-116 colon): 37.5 µM
- TGI (HCT-15 colon): 11.2 µM
- TGI (HL-60(TB) leukemia): 18.9 µM
- TGI (HOP-62 NSCLC): 16.7 µM
- TGI (HOP-92 NSCLC): 16.5 µM
- TGI (HS 578T breast): 1.4 µM
- TGI (HT29 colon): 3.01 µM
- TGI (IGROV1 ovarian): 36.1 µM
- TGI (K-562 leukemia): 46.1 µM
- TGI (KM12 colon): 27 µM
- TGI (LOX IMVI melanoma): 1.19 µM
- TGI (M14 melanoma): 2.35 µM
- TGI (MALME-3M melanoma): 0.841 µM
- TGI (MCF7 breast): 47.1 µM
- TGI (MDA-MB-231 breast): 11.7 µM
- TGI (MDA-MB-435): 31.9 µM
- TGI (MDA-N): 20 µM
- TGI (MOLT-4 leukemia): 2.35 µM
- TGI (NCI-H226 lung): 2.53 µM
- TGI (NCI-H23 lung): 35.3 µM
- TGI (NCI-H460 lung): 14.3 µM
- TGI (NCI-H522 lung): 15.1 µM
- TGI (NCI/ADR-RES ovarian): 20.2 µM
- TGI (OVCAR-3 ovarian): 39 µM
- TGI (OVCAR-4 ovarian): 54 µM
- TGI (OVCAR-5 ovarian): 8.96 µM
- TGI (OVCAR-8 ovarian): 5.73 µM
- TGI (PC-3 prostate): 13.7 µM
- TGI (RPMI-8226 leukemia): 0.64 µM
- TGI (SF-268 CNS): 13.7 µM
- TGI (SF-295 CNS): 6.51 µM
- TGI (SF-539 CNS): 0.908 µM
- TGI (SK-MEL-2 melanoma): 1.41 µM
- TGI (SK-MEL-28 melanoma): > 48.1 µM
- TGI (SK-MEL-5 melanoma): 7.17 µM
- TGI (SK-OV-3 ovarian): 7.77 µM
- TGI (SN12C renal): 4.35 µM
- TGI (SNB-19 CNS): 14.2 µM
- TGI (SNB-75 CNS): 4.19 µM
- TGI (SR leukemia): > 100 µM
- TGI (SW-620 colon): 48.2 µM
- TGI (T-47D breast): 82.3 µM
- TGI (TK-10 renal): 58.2 µM
- TGI (U251 CNS): 25.6 µM
- TGI (UACC-257 melanoma): 30 µM
- TGI (UACC-62 melanoma): 29.2 µM
- TGI (UO-31 renal): 4.48 µM

Structure (SMILES): N#C/C(=C\c1cc(F)cc(F)c1)c1ccccn1
- TGI (786-0 renal): > 10 µM
- TGI (A549 NSCLC): > 100 µM
- TGI (ACHN renal): > 100 µM
- TGI (BT-549 breast): 97.1 µM
- TGI (CAKI-1 renal): > 100 µM
- TGI (CCRF-CEM leukemia): > 100 µM
- TGI (COLO 205 colon): > 10 µM
- TGI (DU-145 prostate): > 100 µM
- TGI (EKVX NSCLC): 44.3 µM
- TGI (HCC-2998 colon): 60 µM
- TGI (HCT-116 colon): > 100 µM
- TGI (HCT-15 colon): 34.2 µM
- TGI (HL-60(TB) leukemia): > 10 µM
- TGI (HOP-62 NSCLC): > 10 µM
- TGI (HOP-92 NSCLC): 48.1 µM
- TGI (HT29 colon): > 100 µM
- TGI (IGROV1 ovarian): > 100 µM
- TGI (K-562 leukemia): > 100 µM
- TGI (KM12 colon): 68 µM
- TGI (M14 melanoma): 88.6 µM
- TGI (MALME-3M melanoma): 73.9 µM
- TGI (MCF7 breast): > 100 µM
- TGI (MDA-N): > 100 µM
- TGI (MOLT-4 leukemia): 45.8 µM
- TGI (NCI-H226 lung): 56.9 µM
- TGI (NCI-H23 lung): 72.8 µM
- TGI (NCI-H460 lung): 74 µM
- TGI (NCI-H522 lung): 74.8 µM
- TGI (NCI/ADR-RES ovarian): 66.9 µM
- TGI (OVCAR-3 ovarian): > 100 µM
- TGI (OVCAR-4 ovarian): > 100 µM
- TGI (OVCAR-5 ovarian): > 100 µM
- TGI (OVCAR-8 ovarian): 45.4 µM
- TGI (PC-3 prostate): > 100 µM
- TGI (RPMI-8226 leukemia): > 100 µM
- TGI (RXF 393 renal): > 100 µM
- TGI (SF-268 CNS): 52.8 µM
- TGI (SF-295 CNS): 60.2 µM
- TGI (SF-539 CNS): 43.5 µM
- TGI (SK-MEL-2 melanoma): > 100 µM
- TGI (SK-MEL-28 melanoma): > 100 µM
- TGI (SK-MEL-5 melanoma): > 100 µM
- TGI (SK-OV-3 ovarian): > 100 µM
- TGI (SN12C renal): 62.9 µM
- TGI (SNB-19 CNS): > 100 µM
- TGI (SNB-75 CNS): > 100 µM
- TGI (SR leukemia): 88.6 µM
- TGI (SW-620 colon): > 10 µM
- TGI (TK-10 renal): > 100 µM
- TGI (U251 CNS): 40 µM
- TGI (UACC-257 melanoma): > 100 µM
- TGI (UACC-62 melanoma): > 100 µM
- TGI (UO-31 renal): > 100 µM
